Where a name gives a salt, the structure may show the parent alone.
What follows are molecules tested against T1, HCV polymerase (Hepatitis C virus genotype 1b, UniProt P26663) (assay: biochemical).
T1 construct: a region encoding NS5B (J Virol 1991 March, 65(3), 1105-13, 544 amino acids after deletion of 47 amino acids on the C-terminal); 6xHis (C); made in house; host or cells: Escherichia coli
T1 sequence (P26663 2420-2963): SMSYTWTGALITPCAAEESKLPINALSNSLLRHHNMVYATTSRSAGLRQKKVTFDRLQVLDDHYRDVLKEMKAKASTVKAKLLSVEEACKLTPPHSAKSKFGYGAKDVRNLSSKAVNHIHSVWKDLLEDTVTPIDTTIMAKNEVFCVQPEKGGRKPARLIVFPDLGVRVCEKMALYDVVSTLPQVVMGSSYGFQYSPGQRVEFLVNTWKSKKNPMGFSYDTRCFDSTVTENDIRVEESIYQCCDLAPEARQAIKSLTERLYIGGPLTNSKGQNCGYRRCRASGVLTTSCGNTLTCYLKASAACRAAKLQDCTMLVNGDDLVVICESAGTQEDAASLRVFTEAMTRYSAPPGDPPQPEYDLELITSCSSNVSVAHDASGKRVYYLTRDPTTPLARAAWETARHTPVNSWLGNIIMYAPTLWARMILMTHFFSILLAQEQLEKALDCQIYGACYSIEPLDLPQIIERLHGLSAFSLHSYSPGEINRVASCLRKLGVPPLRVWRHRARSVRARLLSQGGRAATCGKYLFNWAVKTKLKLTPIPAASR
Parameters: species or system HCV BK strain
Procedure, shortened: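 Recombinant HCV BK-strain NS5B (C-terminal 47 aa deleted, His6-tagged, E. coli), 0.5 μg/ml, run with 5 μg/ml in vitro-transcribed RNA template (polyU/3′X), ATP/GTP/CTP 50 μM, UTP 2 μM plus [3H]UTP, pH 7.5, 25° C, 90 min. TCA-precipitated RNA counted by scintillation; IC50 from activity with vs without compound.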
In the case of `CC1CCCCN1CCN1CCn2c(c(C3CCCCC3)c3ccc(C(=O)O)cc32)-c2ccc(Cl)cc21` (stereo not drawn) [Example 1-213, 3-chloro-13-cyclohexyl-5-[2-(2-methylpiperidin-1-yl)ethyl]-6,7-dihydro-5H-benzo[5,6][1,4]diazepino[7,1-a]indole-10-carboxylic acid dihydrochloride], the IC50 is reported as < 100 nM.
`CC1CCCN(CCN2CCn3c(c(C4CCCCC4)c4ccc(C(=O)O)cc43)-c3ccc(Cl)cc32)C1` (stereo not drawn) [Example 1-214, 3-chloro-13-cyclohexyl-5-[2-(3-methylpiperidin-1-yl)ethyl]-6,7-dihydro-5H-benzo[5,6][1,4]diazepino[7,1-a]indole-10-carboxylic acid dihydrochloride] was tested, and the IC50 was < 100 nM.
For `CC1CCN(CCN2CCn3c(c(C4CCCCC4)c4ccc(C(=O)O)cc43)-c3ccc(Cl)cc32)CC1` [Example 1-215, 3-chloro-13-cyclohexyl-5-[2-(4-methylpiperidin-1-yl)ethyl]-6,7-dihydro-5H-benzo[5,6][1,4]diazepino[7,1-a]indole-10-carboxylic acid dihydrochloride], the IC50 was < 100 nM.
`O=C(O)c1ccc2c(C3CCCCC3)c3n(c2c1)CCN(CCN1CCCC1)c1cc(Cl)ccc1-3` [Example 1-216, 3-chloro-13-cyclohexyl-5-[2-(pyrrolidin-1-yl)ethyl]-6,7-dihydro-5H-benzo[5,6][1,4]diazepino[7,1-a]indole-10-carboxylic acid dihydrochloride] was tested, and the IC50 was < 100 nM.
With `O=C(O)c1ccc2c(C3CCCCC3)c3n(c2c1)CCN(CCN1CCCCCC1)c1cc(Cl)ccc1-3` [Example 1-217, 5-[2-(azepan-1-yl)ethyl]-3-chloro-13-cyclohexyl-6,7-dihydro-5H-benzo[5,6][1,4]diazepino[7,1-a]indole-10-carboxylic acid dihydrochloride] the IC50 was < 100 nM.
In the case of `Cc1ccc2c(c1)N(CCN1CCCCCC1)CCn1c-2c(C2CCCCC2)c2ccc(C(=O)O)cc21` [Example 1-218, 5-[2-(azepan-1-yl)ethyl]-13-cyclohexyl-3-methyl-6,7-dihydro-5H-benzo[5,6][1,4]diazepino[7,1-a]indole-10-carboxylic acid dihydrochloride], the IC50 is reported as < 100 nM.
In the case of `O=C(O)c1ccc2c(C3CCCCC3)c3n(c2c1)CCN(CCC1CCCNC1)c1cc(Cl)ccc1-3` (stereo not drawn) [Example 1-219, 3-chloro-13-cyclohexyl-5-[2-(piperidin-3-yl)ethyl]-6,7-dihydro-5H-benzo[5,6][1,4]diazepino[7,1-a]indole-10-carboxylic acid dihydrochloride], the IC50 is reported as < 100 nM.
With `CC1COCCN1CCN1CCn2c(c(C3CCCCC3)c3ccc(C(=O)O)cc32)-c2ccccc21` (stereo not drawn) [Example 1-220, 13-cyclohexyl-5-[2-(3-methylmorpholin-4-yl)ethyl]-6,7-dihydro-5H-benzo[5,6][1,4]diazepino[7,1-a]indole-10-carboxylic acid dihydrochloride] the IC50 was < 100 nM.
With `CN1CCCC(CCN2CCn3c(c(C4CCCCC4)c4ccc(C(=O)O)cc43)-c3ccc(Cl)cc32)C1` (stereo not drawn) [Example 1-221, 3-chloro-13-cyclohexyl-5-[2-(1-methylpiperidin-3-yl)ethyl]-6,7-dihydro-5H-benzo[5,6][1,4]diazepino[7,1-a]indole-10-carboxylic acid dihydrochloride] the IC50 was < 100 nM.
`CN(C)CCN(C)C(=O)CN1CCn2c(c(C3CCCCC3)c3ccc(C(=O)O)cc32)-c2ccccc21` [Example 1-222, 13-cyclohexyl-5-{[N-(2-dimethylaminoethyl)-N-methylcarbamoyl]methyl}-6,7-dihydro-5H-benzo[5,6][1,4]diazepino[7,1-a]indole-10-carboxylic acid dihydrochloride] was tested, and the IC50 was < 100 nM.
For `CN(C)CCN(C)CCN1CCn2c(c(C3CCCCC3)c3ccc(C(=O)O)cc32)-c2ccccc21` [Example 1-223, 13-cyclohexyl-5-{2-[N-(2-dimethylaminoethyl)-N-methylamino]ethyl}-6,7-dihydro-5H-benzo[5,6][1,4]diazepino[7,1-a]indole-10-carboxylic acid trihydrochloride], the IC50 was < 100 nM.
`CCS(=O)(=O)N1CCN(CCN2CCn3c(c(C4CCCCC4)c4ccc(C(=O)O)cc43)-c3ccccc32)CC1` [Example 1-224, 13-cyclohexyl-5-[2-(4-ethanesulfonylpiperazin-1-yl)ethyl]-6,7-dihydro-5H-benzo[5,6][1,4]diazepino[7,1-a]indole-10-carboxylic acid dihydrochloride] was tested, and the IC50 was < 100 nM.
In the case of `CCC(=O)N1CCN(CCN2CCn3c(c(C4CCCCC4)c4ccc(C(=O)O)cc43)-c3ccccc32)CC1` [Example 1-225, 13-cyclohexyl-5-[2-(4-propionylpiperazin-1-yl)ethyl]-6,7-dihydro-5H-benzo[5,6][1,4]diazepino[7,1-a]indole-10-carboxylic acid dihydrochloride], the IC50 is reported as < 100 nM.
For `CC(C)OC(=O)N1CCN(CCN2CCn3c(c(C4CCCCC4)c4ccc(C(=O)O)cc43)-c3ccccc32)CC1` [Example 1-226, 13-cyclohexyl-5-[2-(4-isopropoxycarbonylpiperazin-1-yl)ethyl]-6,7-dihydro-5H-benzo[5,6][1,4]diazepino[7,1-a]indole-10-carboxylic acid dihydrochloride], the IC50 was < 100 nM.
`CC(C)Oc1ccc2c(c1)N(CCN1CCCCC1)CCn1c-2c(C2CCCCC2)c2ccc(C(=O)O)cc21` [Example 1-227, 13-cyclohexyl-3-isopropoxy-5-[2-(piperidin-1-yl)ethyl]-6,7-dihydro-5H-benzo[5,6][1,4]diazepino[7,1-a]indole-10-carboxylic acid dihydrochloride] was tested, and the IC50 was < 100 nM.
In the case of `CN(C)CCN1CCn2c(c(C3CCCCC3)c3ccc(C(=O)O)cc32)-c2ccc(OCc3ccccc3)cc21` [Example 1-228, 3-benzyloxy-13-cyclohexyl-5-(2-dimethylaminoethyl)-6,7-dihydro-5H-benzo[5,6][1,4]diazepino[7,1-a]indole-10-carboxylic acid dihydrochloride], the IC50 is reported as < 100 nM.
For `CC(C)N1CCCC(CCN2CCn3c(c(C4CCCCC4)c4ccc(C(=O)O)cc43)-c3ccc(Cl)cc32)C1` (stereo not drawn) [Example 1-229, 3-chloro-13-cyclohexyl-5-[2-(1-isopropylpiperidin-3-yl)ethyl]-6,7-dihydro-5H-benzo[5,6][1,4]diazepino[7,1-a]indole-10-carboxylic acid dihydrochloride], the IC50 was < 100 nM.
For `CCCN1CCCC(CCN2CCn3c(c(C4CCCCC4)c4ccc(C(=O)O)cc43)-c3ccc(Cl)cc32)C1` (stereo not drawn) [Example 1-230, 3-chloro-13-cyclohexyl-5-[2-(1-propylpiperidin-3-yl)ethyl]-6,7-dihydro-5H-benzo[5,6][1,4]diazepino[7,1-a]indole-10-carboxylic acid dihydrochloride], the IC50 was < 100 nM.
For `CN(CCN1CCn2c(c(C3CCCCC3)c3ccc(C(=O)O)cc32)-c2ccccc21)C1CCCCC1` [Example 1-231, 13-cyclohexyl-5-[2-(N-cyclohexyl-N-methylamino)ethyl]-6,7-dihydro-5H-benzo[5,6][1,4]diazepino[7,1-a]indole-10-carboxylic acid], the IC50 was < 100 nM.
In the case of `CS(=O)(=O)N1CCCN(CCN2CCn3c(c(C4CCCCC4)c4ccc(C(=O)O)cc43)-c3ccccc32)CC1` [Example 1-232, 13-cyclohexyl-5-[2-(4-methanesulfonyl-1,4-diazepan-1-yl)ethyl]-6,7-dihydro-5H-benzo[5,6][1,4]diazepino[7,1-a]indole-10-carboxylic acid dihydrochloride], the IC50 is reported as < 100 nM.
With `COC(=O)N1CCCN(CCN2CCn3c(c(C4CCCCC4)c4ccc(C(=O)O)cc43)-c3ccccc32)CC1` [Example 1-233, 13-cyclohexyl-5-[2-(4-methoxycarbonyl-1,4-diazepan-1-yl)ethyl]-6,7-dihydro-5H-benzo[5,6][1,4]diazepino[7,1-a]indole-10-carboxylic acid dihydrochloride] the IC50 was < 100 nM.
In the case of `O=C(O)c1ccc2c(C3CCCCC3)c3n(c2c1)CCN(CCN1CCCCCC1)c1cc(F)ccc1-3` [Example 1-234, 5-[2-(azepan-1-yl)ethyl]-13-cyclohexyl-3-fluoro-6,7-dihydro-5H-benzo[5,6][1,4]diazepino[7,1-a]indole-10-carboxylic acid dihydrochloride], the IC50 is reported as < 100 nM.
With `O=C(O)c1ccc2c(C3CCCCC3)c3n(c2c1)CC(=O)N(CCN1CCCCC1)c1ccccc1-3` [Example 1-235, 13-cyclohexyl-6-oxo-5-[2-(piperidin-1-yl)ethyl]-6,7-dihydro-5H-benzo[5,6][1,4]diazepino[7,1-a]indole-10-carboxylic acid monohydrochloride] the IC50 was < 100 nM.
For `COC(=O)N(C)CCN(C)CCN1CCn2c(c(C3CCCCC3)c3ccc(C(=O)O)cc32)-c2ccccc21` [Example 1-236, 13-cyclohexyl-5-(2-{N-[2-(N-methoxycarbonyl-N-methylamino)ethyl]-N-methylamino}ethyl)-6,7-dihydro-5H-benzo[5,6][1,4]diazepino[7,1-a]indole-10-carboxylic acid dihydrochloride], the IC50 was < 100 nM.
In the case of `CC1CCN(CCN2CCn3c(c(C4CCCCC4)c4ccc(C(=O)O)cc43)-c3ccccc32)C1` (stereo not drawn) [Example 1-237, 13-cyclohexyl-5-[2-(3-methylpyrrolidin-1-yl)ethyl]-6,7-dihydro-5H-benzo[5,6][1,4]diazepino[7,1-a]indole-10-carboxylic acid dihydrochloride], the IC50 is reported as < 100 nM.
With `COC1CCN(CCN2CCn3c(c(C4CCCCC4)c4ccc(C(=O)O)cc43)-c3ccccc32)C1` (stereo not drawn) [Example 1-238, 13-cyclohexyl-5-[2-(3-methoxypyrrolidin-1-yl)ethyl]-6,7-dihydro-5H-benzo[5,6][1,4]diazepino[7,1-a]indole-10-carboxylic acid dihydrochloride] the IC50 was < 100 nM.
For `CCN1CCCN(C(=O)CN2CCn3c(c(C4CCCCC4)c4ccc(C(=O)O)cc43)-c3ccccc32)CC1` [Example 1-239, 13-cyclohexyl-5-[2-(4-ethyl-1,4-diazepan-1-yl)-2-oxoethyl]-6,7-dihydro-5H-benzo[5,6][1,4]diazepino[7,1-a]indole-10-carboxylic acid dihydrochloride], the IC50 was < 100 nM.

Reference: patent US20070049593A1 (priority 2004, published 2007)
